Laboratory results published in patent US20030109532A1, “Modulators of dopamine neurotransmission” (priority 2002, published 2003).
Structures can show the parent of a compound that is named as a salt.

Experiments:
[1] = test system: 3,4-dihydroxyphenylacetic acid (DOPAC) in the striatum; test: In vivo test: neurochemistry, 3,4-dihydroxyphenylacetic acid (DOPAC) in the striatum; design: species or system rat; conditions: 100 μmol/kg s.c., n=4
From the text: (§1) In vivo Test: Neurochemistry
(§2) After the behavioral activity sessions the rats were decapitated and their brains rapidly taken out and put on an ice-cold petri-dish. The limbic forebrain, the striatum, the frontal cortex and the remaining hemispheral parts of each rat were dissected and frozen. Each brain part was subsequently analyzed with respect to its content of monoamines and their metabolites. The monoaminergic indices analyzed were dopamine (DA), 3,4-dihydroxyphenylacetic acid (DOPAC), homovanillic acid (HVA), 3-methoxytyramine (3-MT), serotonin (5-HT), 5-hydroxyindole acetic acid (5-HIAA), and noradrenaline (NA). All monoaminergic indices in the dissected tissue were analyzed by means of HPLC with electrochemical detection as described by Svensson K, et al., 1986, NaunynSchmiedeberg's Arch Pharmacol 334: 234-245 and references cited therein.

[2] = test system: serotonin in the striatum; test: In vivo test: neurochemistry, serotonin (5-HT) in the striatum; design: species or system rat; conditions: n=4
From the text: as §1, §2

rats = test: In vivo test: behavior, spontaneous motor activity (distance traveled in motility meter); design: species or system rat; conditions: n=4; for motoractivity in the behavioral assay: 100 μmol/kg s.c., 0-60 min
[3] = test system: rats pretreated with d-amphetamine; test: In vivo test: behavior, d-amphetamine induced hyperactivity; design: species or system rat; conditions: 100 μmol/kg s.c.; d-amphetamine 1.5 mg/kg s.c. pretreatment, n=4

Row | Compound | 3,4-dihydroxy-phenylacetic acid in the striatum [1] [ng/g tissue] | motoractivity in the behavioral assay (rats) [cm/60 min] | melting point [°C] | other results
1 | CCCN1[C@H](C)CN(c2cccc(C(F)(F)F)c2)C[C@@H]1C [Example 2, cis-2,6-Dimethyl-1-propyl-4-(3-trifluoro-methyl-phenyl)-piperazine] | 1388±60 | 3619±483 | – | serotonin in the striatum ([2]; 100 μmol/kg s.c.): 419±23 ng/g tissue
2 | CCCN1CC[C@H](c2cccc(S(C)(=O)=O)c2)[C@H](C)C1 (relative stereo) (as salt: HCl) [Example 4, cis-4-(3-Methanesulfonyl-phenyl)-3-methyl-1-propyl-piperidine] | – | – | 197 | –
3 | CCCN1[C@H](C)CN(c2cccc(S(C)(=O)=O)c2)C[C@@H]1C [Example 3, cis-4-(3-Methanesulfonyl-phenyl)-2,6-dimethyl-1-propyl-piperazine] | 3140±169 | – | – | motor activity (rats; 100 μmol/kg, 30-60 min post injection): 253±73 cm/30 min; d-amphetamine induced hyperactivity [3]: 2492±530 cm/60 min
4 | CCCN1[C@H](C)CN(c2cccc(S(C)(=O)=O)c2)C[C@@H]1C (as salt: HCl) [Example 3, cis-4-(3-Methanesulfonyl-phenyl)-2,6-dimethyl-1-propyl-piperazine] | – | – | 233 | –
5 | CCCN1CC[C@H](c2cccc(S(C)(=O)=O)c2)[C@H](C)C1 (relative stereo) [Example 4, cis-4-(3-Methanesulfonyl-phenyl)-3-methyl-1-propyl-piperidine] | 1884±98 | 4948±577 | – | –
6 | CCCN1CCN(c2cccc(C(F)(F)F)c2)CC1 [1-propyl-4-(3-triflouro-methyl-phenyl)-piperazine, reference compound] | – | – | – | serotonin in the striatum ([2]; 50 μmol/kg s.c.): 308±18 ng/g tissue; motoractivity in the behavioral assay (behavioral inhibition) (rats; 50 μmol/kg s.c.): 271±137 cm/60 min
